The values below come from patent US20160022699A1, “COMBINATIONS AND METHODS FOR TREATING NON AGE-RELATED HEARING IMPAIRMENT IN A SUBJECT” (Washington University, priority 2012, published 2016).

For assay [1], the system named is noise-induced hearing loss (NIHL) in C57BL/6J mice. Kind of assay: NIHL prevention protocol: drug i.p. two hours before white noise (110 dB SPL, 30 min), ABR thresholds / threshold shifts two weeks after noise. To be noted: for ED50: Mus musculus, ip, 2 h, read-out: median effective dose (ED50) to prevent noise-induced hearing loss; for drug effect on ABR threshold shift (two-way ANOVA), prevention: all dosages.

Assay [2] shares this test system. Description: NIHL treatment protocol: drug i.p. 24 hours after white noise (110 dB SPL, 30 min), ABR threshold shifts. To be noted: for ED50: Mus musculus, ip, 24 h, read-out: median effective dose (ED50) to treat noise-induced hearing loss; for drug effect on ABR threshold shift (two-way ANOVA), treatment / gender effect on ABR threshold shift (two-way ANOVA), treatment: 24 hours after noise.

The test system of assay [3] is NIHL in mice. To be noted: cited from earlier work; for prophylactic and therapeutic effects against NIHL: drinking water, three weeks before noise.
The test system of assay [4] is NIHL in mice. The note with it: intraperitoneal injections; cited from earlier work.
In the next assay the test system is cultured auditory cells. The note with it: cited from earlier work.

SMILES strings stand for the structures. “Also recorded” adds a separate entry of the source.

As usually defined, the ED50 is the midpoint of the dose-response relation.

With `C[C@@H]1C[C@H]2[C@@H]3CCC4=CC(=O)C=C[C@]4(C)[C@@]3(F)[C@@H](O)C[C@]2(C)[C@@]1(O)C(=O)CO` [dexamethasone], the ED50 in assay [1] is 39.4 mg/kg; in assay [2] it was 96.3 mg/kg.

Consider `CCC1(C)CC(=O)NC1=O` (stereo not drawn) [ethosuximide], for which the “prophylactic and therapeutic effects against NIHL” value in the assay on NIHL in mice [3] was “both prophylactic and therapeutic effects”. The “effect on NIHL (Tukey/Kramer post-hoc)” value in assay [1] (60 mg/kg, two hours before noise) is “significantly enhanced NIHL”. In addition, the “effect on NIHL (Tukey/Kramer post-hoc)” value in assay [1] (90 mg/kg, two hours before noise) is “significantly protected against NIHL”. For the same molecule, the “effect on NIHL (Tukey/Kramer post-hoc)” value in assay [1] (130 to 260 mg/kg, two hours before noise) is “reduced to no significance”. In assay [1] (i.p. two hours before noise, calculated with CompuSyn (Chou-Talalay)), the “median effective dose (ED50) to prevent noise-induced hearing loss” value is recorded as “no ED50; also recorded: could not be obtained”. In assay [1] (two hours before noise), the “gender effect on ABR threshold shift (two-way ANOVA), prevention” value is reported as “showed no gender differences” and the “drug effect on ABR threshold shift (two-way ANOVA), prevention” value is listed as “statistically significant main effect of drug concentrations”. For the same molecule, in assay [2], the “drug effect on ABR threshold shift (two-way ANOVA), treatment” value is “statistically significant drug effects”; the “gender effect on ABR threshold shift (two-way ANOVA), treatment” value was “the gender effect was also significant; also recorded: gender difference was also observed”; the ED50 was found to be 243 mg/kg.

In the case of `Fc1ccc(C(c2ccc(F)cc2)N2CCN(C/C=C/c3ccccc3)CC2)cc1` [flunarizine], the NIHL prophylactic function entry in the assay with NIHL in mice [4] is “no NIHL prophylactic functions”. Moreover, in the assay with cultured auditory cells, the cisplatin-induced cell death entry is recorded as “inhibit cisplatin-induced death of cultured auditory cells”.

For the molecule `C[C@H]1C[C@@H]2[C@H]([C@@H](O)C[C@@]3(C)[C@H]2CC[C@]3(O)C(=O)CO)[C@@]2(C)C=CC(=O)C=C12` [methylprednisolone], the ED50 came to 525 mg/kg in assay [1] and 95.6 mg/kg in assay [2].

For the molecule `COCC(=O)O[C@]1(CCN(C)CCCc2nc3ccccc3[nH]2)CCc2cc(F)ccc2[C@@H]1C(C)C` [mibefradil], in the assay on NIHL in mice [4], the NIHL prophylactic function entry is given as “no NIHL prophylactic functions”.

On to `CN1C(=O)OC(C)(C)C1=O` [trimethadione], for which the “prophylactic and therapeutic effects against NIHL” value in the assay on NIHL in mice [3] is “both prophylactic and therapeutic effects”. In the assay on NIHL in mice [3] (mouse, in vivo), the “gender dependence of therapeutic effect against NIHL” value is given as “observed only in male mice” and the “outer hair cell (OHC) protection” value is given as “OHC protection was observed”.

For the molecule `NS(=O)(=O)Cc1noc2ccccc12` [zonisamide], the median effective dose (ED50) in assay [1] is 125 mg/kg. Further, in assay [1] (two hours before noise), the “dosage dependence of NIHL prevention” value is “clear dosage-dependent prevention of NIHL”; the “gender effect on ABR threshold shift (two-way ANOVA), prevention” value was “the gender had no effects; also recorded: showed no gender differences”; the “drug effect on ABR threshold shift (two-way ANOVA), prevention” value was “statistically significant drug effects”. In assay [2], the “drug effect on ABR threshold shift (two-way ANOVA), treatment” value is reported as “no statistically significant drug effects”; the “gender effect on ABR threshold shift (two-way ANOVA), treatment” value was “the gender had no effects as well”; the ED50 is 2540 mg/kg.
